Tests used:
[1] = system: surgically created aneurysm; settings: bFGF collagen gel in fiber lumen, three weeks; cited from earlier work
[2] = system: endothelial cell migration and vessel formation in Matrigel plug; assay: In vivo murine Matrigel plug assay; parameters: species or system C57BL/6 mice; settings: 10 μL daily of 100 μg/mL VEGF or 1800 μM S1P via fiber, 7 days post-implantation
Experimental: In vivo Assay. Growth factor reduced Matrigel™ (500 μL) was injected into the subcutaneous space on the dorsal side of C57BL/6 mice on both the left and right sides. A 12 G needle was used to thread cellulose hollow fibers through the skin and Matrigel™ plugs. Hollow fibers were fixed in place using tissue glue and an Elizabethan collar was used to prevent mice from extracting the hollow fiber. On the day of implantation and every day for the next 6 days, hollow fibers on the left side were injected with sterile saline and hollow fibers on the right side were injected with 10 μL of 100 μg/mL VEGF or 1800 μM S1P (see Table 8 for schedule).
Seven days post-implantation, implants were extracted, fixed and analyzed for endothelial cell migration and vessel formation. […] CD31 staining of Matrigel™ plug explants confirms that cells that have migrated into the Matrigel™ plugs are in fact endothelial cells (FIGS. 21E-H). Metamorph® was used to measure the % area of each image that consisted of endothelial cell staining in order to quantify endothelial cell migration.

Row | Substance | fibrous tissue formation in aneurysm [1] | blood filled vessels (H&E) [2]
1 | basic fibroblast growth factor [bFGF] | remained functional as it was able to guide the aneurysm to create fibrous tissue | –
2 | vascular endothelial growth factor [VEGF] | – | blood filled vessels
